In one assay the target is T1, CDK2/CycE (Homo sapiens, UniProt P24941).
T1 construct: GST; purchased ProQinase GmbH (Freiburg, Germany); host or cells: insect cells (Sf9)
In words: CDK2/CycE kinase assay (TR-FRET). The class given is biochemical. Conditions: avg, read-out: CDK2 avg (IC50 [mol/l]). The method, boiled down: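 Read-out is a TR-FRET 665/620 nm emission ratio from EDTA-stopped reactions detected with anti-pRB(pSer807/pSer811), Eu-labelled anti-mouse IgG and streptavidin-XL665, scaled between no-enzyme and uninhibited wells. Reaction: Sf9-expressed GST-CDK2/GST-CycE, 15 min compound preincubation, 10 μM ATP, 0.75 μM biotin-peptide, 25 min, 22° C., pH 8.0 Tris buffer.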
In general terms: In TR-FRET formats the signal depends on donor and acceptor labels being close together.

The test system of assay [1] is human cervical tumor cell line HeLa (ATCC CCL-2). Nature of the assay: SAC-Formation - Nocodazole-Induced Assay. The class given is cell-based. The settings on record: Homo sapiens, HeLa, 24 h, HeLa cells, nocodazole 0.1 μg/ml together with test compound, decrease of mitotic cells (phospho-histone H3 Ser10). The method, boiled down: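 Loss of phospho-histone H3 Ser10-positive cells, counted against Hoechst-stained nuclei by high-content imaging, marked mitotic breakthrough. Compounds (0.005–20 μM, 0.5% DMSO) were co-dosed with 0.1 μg/ml nocodazole onto HeLa cells for 24 h at 37 °C. Curves were fitted with a four-parameter Hill equation.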

In the case of `Cc1nsc(Nc2cnc3ccccc3n2)c1C(=O)Nc1cccc(NS(=O)(=O)C2CCCN(C(=O)OCc3ccccc3)C2)c1` (stereo not shown) [Example 291, benzyl 3-{[3-({[3-methyl-5-(quinoxalin-2-ylamino)-1,2-thiazol-4-yl]carbonyl}amino)phenyl]sulfamoyl} piperidine-1-carboxylate], the IC50 on CDK2/CycE amounted to 14000 nM; in assay [1] it was 1400 nM.

As for `Cc1nsc(Nc2cnc(C(F)(F)F)cn2)c1C(=O)Nc1ccc(OCCCNCC(F)(F)F)nc1` [Example 292, 3-methyl-N-(6-{3-[(2,2,2-trifluoroethyl)amino]propoxy}pyridin-3-yl)-5-{[5-(trifluoromethyl)pyrazin-2-yl]amino}-1,2-thiazole-4-carboxamide], the values for the IC50 (on CDK2/CycE; in assay [1]) were > 20000 nM and 980 nM, respectively.

As for `Cc1nsc(Nc2cnc(C(F)(F)F)cn2)c1C(=O)Nc1ccc(OCCCNCC(F)F)nc1` [Example 293, N-(6-{3-[(2,2-difluoroethyl)amino]propoxy}pyridin-3-yl)-3-methyl-5-{[5-(trifluoromethyl)pyrazin-2-yl]amino}-1,2-thiazole-4-carboxamide], the figures for the IC50 (on CDK2/CycE; in assay [1]) were > 20000 nM and 3100 nM, respectively.

As to `Cc1nsc(Nc2cnc(C(F)(F)F)cn2)c1C(=O)Nc1ccc(OCCCNCCC(F)(F)F)nc1` [Example 294, 3-methyl-5-{[5-(trifluoromethyl)pyrazin-2-yl]amino}-N-(6-{3-[(3,3,3-trifluoropropyl)amino]propoxy}pyridin-3-yl)-1,2-thiazole-4-carboxamide], the IC50 is > 20000 nM on CDK2/CycE and 450 nM in assay [1].

`Cc1nsc(Nc2cnc(C(F)(F)F)cn2)c1C(=O)Nc1ccc(OC2CCN(CCF)C2)nc1` (stereo not shown) [Example 295, N-(6-{[1-(2-fluoroethyl)pyrrolidin-3-yl]oxy}pyridin-3-yl)-3-methyl-5-{[5-(trifluoromethyl)pyrazin-2-yl]amino}-1,2-thiazole-4-carboxamide]: the IC50 at CDK2/CycE was > 20000 nM; in assay [1], 590 nM.

On to `Cc1nsc(Nc2cnc(C(F)(F)F)cn2)c1C(=O)Nc1ccc(OC2CCN(CC(F)F)C2)nc1` (stereo not shown) [Example 296, N-(6-{[1-(2,2-difluoroethyl)pyrrolidin-3-yl]oxy}pyridin-3-yl)-3-methyl-5-{[5-(trifluoromethyl)pyrazin-2-yl]amino}-1,2-thiazole-4-carboxamide], for which the figures for the IC50 (on CDK2/CycE; in assay [1]) were > 20000 nM and 180 nM, respectively.

For `Cc1nsc(Nc2cnc(C(F)(F)F)cn2)c1C(=O)Nc1ccc(OC2CCN(CC(F)(F)F)C2)nc1` (stereo not shown) [Example 297, 3-methyl-N-(6-{[1-(2,2,2-trifluoroethyl)pyrrolidin-3-yl]oxy}pyridin-3-yl)-5-{[5-(trifluoromethyl)pyrazin-2-yl]amino}-1,2-thiazole-4-carboxamide], the IC50 was > 20000 nM on CDK2/CycE and 80 nM in assay [1].

Turning to `Cc1nsc(Nc2cnc(C(F)(F)F)cn2)c1C(=O)Nc1ccc(OC2CCN(CCC(F)(F)F)C2)nc1` (stereo not shown) [Example 298, 3-methyl-5-{[5-(trifluoromethyl)pyrazin-2-yl]amino}-N-(6-{[1-(3,3,3-trifluoropropyl)pyrrolidin-3-yl]oxy}pyridin-3-yl)-1,2-thiazole-4-carboxamide], the IC50 on CDK2/CycE was > 20000 nM; in assay [1], 80 nM.

As to `Cc1nsc(Nc2cnc(C(F)(F)F)cn2)c1C(=O)Nc1ccc(N(C)C)c(OCCCN(C)CC(F)(F)F)c1` [Example 299, N-[4-(dimethylamino)-3-{3-[methyl(2,2,2-trifluoroethyl)amino]propoxy}phenyl]-3-methyl-5-{[5-(trifluoromethyl)pyrazin-2-yl]amino}-1,2-thiazole-4-carboxamide], the IC50 is > 20000 nM at CDK2/CycE and 210 nM in assay [1].

As to `Cc1nsc(Nc2cnc(C(F)(F)F)cn2)c1C(=O)Nc1ccc(N(C)C)c(OCCCN(C)CCC(F)(F)F)c1` [Example 300, N-[4-(dimethylamino)-3-{3-[methyl(3,3,3-trifluoropropyl)amino]propoxy}phenyl]-3-methyl-5-{[5-(trifluoromethyl)pyrazin-2-yl]amino}-1,2-thiazole-4-carboxamide], the values for the IC50 (at CDK2/CycE; in assay [1]) were > 20000 nM and 440 nM, respectively.

Take `Cc1nsc(Nc2cnc(C(F)(F)F)cn2)c1C(=O)Nc1ccc(F)c(OCCCN(C)CC(F)F)c1` [Example 301, N-(3-{3-[(2,2-difluoroethyl)(methyl)amino]propoxy}-4-fluorophenyl)-3-methyl-5-{[5-(trifluoromethyl)pyrazin-2-yl]amino}-1,2-thiazole-4-carboxamide]: the IC50 at CDK2/CycE was > 20000 nM; in assay [1], 110 nM.

As for `Cc1nsc(Nc2cnc(C(F)(F)F)cn2)c1C(=O)Nc1ccc(F)c(OCCCN(C)CC(F)(F)F)c1` [Example 302, N-(4-fluoro-3-{3-[methyl(2,2,2-trifluoroethyl)amino]propoxy}phenyl)-3-methyl-5-{[5-(trifluoromethyl)pyrazin-2-yl]amino}-1,2-thiazole-4-carboxamide], the values for the IC50 (at CDK2/CycE; in assay [1]) were > 20000 nM and 70 nM, respectively.

Regarding `Cc1nsc(Nc2cnc(C(F)(F)F)cn2)c1C(=O)Nc1ccc(F)c(OCCCN(C)CCC(F)(F)F)c1` [Example 303, N-(4-fluoro-3-{3-[methyl(3,3,3-trifluoropropyl)amino]propoxy}phenyl)-3-methyl-5-{[5-(trifluoromethyl)pyrazin-2-yl]amino}-1,2-thiazole-4-carboxamide], the figures for the IC50 (at CDK2/CycE; in assay [1]) were ≥ 20000 nM and 51 nM, respectively.

For the compound `Cc1nsc(Nc2cncc(C(F)(F)F)n2)c1C(=O)Nc1ccc(OC2CCN(CCC(F)(F)F)CC2)nc1` [Example 304, 3-methyl-5-{[6-(trifluoromethyl)pyrazin-2-yl]amino}-N-(6-{[1-(3,3,3-trifluoropropyl)piperidin-4-yl]oxy}pyridin-3-yl)-1,2-thiazole-4-carboxamide], the IC50 was > 20000 nM on CDK2/CycE and 130 nM in assay [1].

As for `Cc1nsc(Nc2cnc(C(F)(F)F)cn2)c1C(=O)Nc1ccc(OCCNCC(F)F)nc1` [Example 305, N-(6-{2-[(2,2-difluoroethyl)amino]ethoxy}pyridin-3-yl)-3-methyl-5-{[5-(trifluoromethyl)pyrazin-2-yl]amino}-1,2-thiazole-4-carboxamide], the results for the IC50 (at CDK2/CycE; in assay [1]) were ≥ 20000 nM and 510 nM, respectively.

With `Cc1nsc(Nc2cnc(C(F)(F)F)cn2)c1C(=O)Nc1ccc(F)c(OCCCNCC(F)(F)F)c1` [Example 306, N-(4-fluoro-3-{3-[(2,2,2-trifluoroethyl)amino]propoxy}phenyl)-3-methyl-5-{[5-(trifluoromethyl)pyrazin-2-yl]amino}-1,2-thiazole-4-carboxamide], the IC50 was ≥ 20000 nM at CDK2/CycE and 24 nM in assay [1].

Consider `Cc1nsc(Nc2cnc(C(F)(F)F)cn2)c1C(=O)Nc1ccc(F)c(OCCCNCCC(F)(F)F)c1` [Example 307, N-(4-fluoro-3-{3-[(3,3,3-trifluoropropyl)amino]propoxy}phenyl)-3-methyl-5-{[5-(trifluoromethyl)pyrazin-2-yl]amino}-1,2-thiazole-4-carboxamide], for which the IC50 at CDK2/CycE is ≥ 20000 nM; in assay [1] it was 99 nM.

In the case of `Cc1nsc(Nc2cnc(C(F)(F)F)cn2)c1C(=O)Nc1ccc(F)c(OCC2CCN(CC(F)F)CC2)c1` [Example 308, N-(3-{[1-(2,2-difluoroethyl)piperidin-4-yl]methoxy}-4-fluorophenyl)-3-methyl-5-{[5-(trifluoromethyl)pyrazin-2-yl]amino}-1,2-thiazole-4-carboxamide], the IC50 at CDK2/CycE was ≥ 20000 nM; in assay [1] it was 31 nM.

Regarding `Cc1nsc(Nc2cnc(C(F)(F)F)cn2)c1C(=O)Nc1ccc(F)c(OCC2CCN(CCF)CC2)c1` [Example 309, N-(4-fluoro-3-{[1-(2-fluoroethyl)piperidin-4-yl]methoxy}phenyl)-3-methyl-5-{[5-(trifluoromethyl)pyrazin-2-yl]amino}-1,2-thiazole-4-carboxamide], the values for the IC50 (at CDK2/CycE; in assay [1]) were ≥ 20000 nM and 130 nM, respectively.

Turning to `Cc1nsc(Nc2cnc(C(F)(F)F)cn2)c1C(=O)Nc1ccc(F)c(OCC2CCN(CC(F)(F)F)CC2)c1` [Example 310, N-(4-fluoro-3-{[1-(2,2,2-trifluoroethyl)piperidin-4-yl]methoxy}phenyl)-3-methyl-5-{[5-(trifluoromethyl)pyrazin-2-yl]amino}-1,2-thiazole-4-carboxamide], the figures for the IC50 (on CDK2/CycE; in assay [1]) were ≥ 20000 nM and 59 nM, respectively.

In the case of `Cc1nsc(Nc2cnc(C(F)(F)F)cn2)c1C(=O)Nc1ccc(F)c(OCC2CCN(CCC(F)(F)F)CC2)c1` [Example 311, N-(4-fluoro-3-{[1-(3,3,3-trifluoropropyl)piperidin-4-yl]methoxy}phenyl)-3-methyl-5-{[5-(trifluoromethyl)pyrazin-2-yl]amino}-1,2-thiazole-4-carboxamide], the IC50 on CDK2/CycE was > 20000 nM; in assay [1] it was 130 nM.

Turning to `Cc1nsc(Nc2cnc(C(F)(F)F)cn2)c1C(=O)Nc1ccc(F)c(OCC2CCN(C(CF)CF)CC2)c1` [Example 312, N-(3-{[1-(1,3-difluoropropan-2-yl)piperidin-4-yl]methoxy}-4-fluorophenyl)-3-methyl-5-{[5-(trifluoromethyl)pyrazin-2-yl]amino}-1,2-thiazole-4-carboxamide], the IC50 on CDK2/CycE was ≥ 20000 nM; in assay [1], 82 nM.

In the case of `Cc1nsc(Nc2cnc(C(F)(F)F)cn2)c1C(=O)Nc1ccc(OC2CCN(C(CF)CF)C2)nc1` (stereo not shown) [Example 313, N-(6-{[1-(1,3-difluoropropan-2-yl)pyrrolidin-3-yl]oxy}pyridin-3-yl)-3-methyl-5-{[5-(trifluoromethyl)pyrazin-2-yl]amino}-1,2-thiazole-4-carboxamide], the figures for the IC50 (at CDK2/CycE; in assay [1]) were ≥ 20000 nM and 140 nM, respectively.

For the origin of these results see patent publication US20170334899A1, “AMINO-SUBSTITUTED ISOTHIAZOLES” (Bayer Pharma Aktiengesellschaft, priority 2014, published 2017).
